System: cultured mouse cortical neurons
Assay: Digital holographic imaging (DHI) of glutamate-mediated morphological changes (phase/OPL signal) in neurons
Type: cell-based
From the text: FIG. 3 presents an example of application of the present invention to image living cells in culture enclosed in a perfusion chamber 30 filled with a physiological solution 37. […] A CCD camera 35 records the hologram. The hologram is produced by the interference with a reference wave 36. A numerical procedure is then applied to reconstruct the hologram. The obtained phase-contrast image can be presented in 3D perspective, as presented for example in FIG. 4d.
From the quantitative phase-contrast image, quantitative data about the cell morphology can be obtained. The refractive index, at the wavelength of 633 nm, of the perfused solution nm=1.3336±0.0002, was measured with an Abbe refractometer. By assuming, in first approximation, a constant and homogeneous cellular refractive index ns=1.365, one can estimate that an phase of 10 degree corresponds to a cellular thickness d=0.6 μm. Using this relation between phase and thickness, phase measurements extracted from specific pixels of the quantitative phase-contrast image presented FIG. 3c, yields a thickness of 1-3 μm for the neuronal processes and of approximately 8 μm for the cell body. Even with the assumption of a homogeneous distribution of intracellular refractive index (which can be discussed given a certain degree of heterogeneity of its constituents), these estimations of cell morphology give realistic values of typical cell dimensions as described in the literature for the mouse cortical neurons presented here. Using the same assumption for refractive index of the cell, and based on a phase measurement accuracy of 0.7 degree, that is dictated by experimental opto-mechanical noise, we obtain an axial (or vertical) resolution of 40 nanometers.
As an example of application of the present invention, the present invention has been applied to study the effects of an excitatory neurotransmitter (glutamate) on the morphology of cultured mouse cortical neurons. The influence of glutamate on neuron morphology has been already described as resulting from excitotoxicity, for high concentrations (20-500 μM) and long exposures of several minutes. […] It has also been established that this effect occurs in response to the activation of N-methyl-D-aspartate (NMDA) receptors. FIG. 4a presents the temporal evolution of the phase signal measured, in real-time by DHI, in the domain delimited by a black rectangle in FIG. 4b, which presents a typical example of a quantitative phase contrast image of a living mouse cortical neuron immersed in a physiological solution. […] These pulses of pharmacological agents are indicated by black triangles in FIG. 4a. […] The concentrations of GLUT, are respectively 15 μM, 10 μM, 15 μM and 20 μM. At instants indicated by black triangles 45 and 46, 400 μM of kynurenate (KYN), a broad spectrum ionotropic glutamate receptor antagonist, has been added to GLUT. […] These OPL increases could be reproduced several times over periods of more than three hours. […] A concentration-response curve (FIG. 4c) has been established on the basis of 5 different experiments. As response amplitudes vary from cell to cell, results were normalized with respect to the maximal response which occurred at a concentration of ˜15 μM. […] Without glycine cells started to respond at glutamate concentrations higher than 15 μM and for only ˜25% of cells (vs. ˜80% in the presence of glycine). As glycine is an NMDA receptor co-agonist, this behavior further emphasizes the role these receptors in the glutamate-evoked responses. The maximum amplitude of a typical phase increase is ˜10 degree representing ˜5% of the initial cellular phase. If we assume once again a constant cellular refractive index (ns=1.365), this corresponds to an increase in the vertical (z) axis of ˜0.6 μm.

`O=C(O)c1cc(=O)c2ccccc2[nH]1` [KYN, kynurenate] was tested, and the “effect on glutamate-evoked phase signal” value (400 μM added to GLUT) was “No increase of the phase signal occurs”.
`C[C@]12N[C@H](Cc3ccccc31)c1ccccc12` [MK-801] was tested, and the “effect on glutamate-evoked phase signal” value (5 μM added to GLUT) was “inhibited”.
In the case of `N[C@@H](CCC(=O)O)C(=O)O` [glutamate], the “maximum amplitude of a typical phase increase” value is reported as about 10 degree, the “maximum phase increase as share of the initial cellular phase” value is reported as about 5% and the EC50 (20 seconds pulses, glycine (3 μM) in perfusion solutions, 5 different experiments, normalized to maximal response, read-out: EC50 of glutamate-evoked phase response (Hill equation fit of concentration-response curve)) is reported as about 7.5 µM. The “phase signal on application alone” value (GLUT 15, 10, 15 and 20 μM pulses of 20 seconds) was “Marked phase increases”, the “increase in the vertical (z) axis” value (assuming constant cellular refractive index ns=1.365) was about 0.6 μm and the Hill coefficient (concentration-response curve, glycine (3 μM) present) was 3.75±0.4. The “concentration at which the maximal response occurred” value (glycine (3 μM) present) was about 15 µM, the cells responding (in the presence of glycine) was about 80% and the cells responding (without glycine) was about 25%. For the same compound, the “glutamate concentration at which cells started to respond” value (without glycine) was “higher than 15 μM”.

Reference: US6943924B2, “Apparatus and method for digital holographic imaging” (Ecole Polytechnique Federale de Lausanne (EPFL), priority 2001, dated 2005)
